Assay results: paper PMC7011974, “Benzimidazole derivatives endowed with potent antileishmanial activity” (Journal of Enzyme Inhibition and Medicinal Chemistry, 2017)
Read-outs that look alike come from different tables or passages of the source.

Experiments:
[1] = system: L. tropica promastigotes; assay: Antileishmanial activity on L. tropica promastigotes (MTT); assay type: cell-based, Leishmania tropica; conditions: for IC50: 72 h, promastigotes, MTT, starred values mean of two experiments, read-out: IC50 (µM) L. tropica; for Antileishmanial activity in words: promastigotes of L. tropica and/or L. infantum; for Ratio IC50 miltef./IC50 compd., L. tropica: fold potency versus miltefosine; for IC50 amph. B ×100/IC50 compd., L. tropica: percent of amphotericin B potency, calculated for each experiment
[2] = system: human microvascular endothelial cell line (HMEC-1); assay: Cytotoxicity on HMEC-1 cells (MTT); assay type: cell-based; conditions: for IC50: cytotoxicity, HMEC-1 cells, MTT; for SI L. infantum (IC50 HMEC-1/IC50 L. infantum) / SI L. tropica (IC50 HMEC-1/IC50 L. tropica): selectivity index
[3] = system: L. infantum promastigotes; assay: Antileishmanial activity on L. infantum promastigotes (MTT); assay type: cell-based, Leishmania infantum; conditions: for IC50: Leishmania infantum, promastigotes, MTT, 72 h, read-out: IC50 (µM) L. infantum; for Ratio IC50 miltef./IC50 compd., L. infantum: fold potency versus miltefosine; for IC50 amph. B ×100/IC50 compd., L. infantum: percent of amphotericin B potency, calculated for each experiment

Row | SMILES | melting point [°C] | IC50 ([1]; Leishmania tropica) [µM] | Antileishmanial activity in words [1] | IC50 ([2]; Homo sapiens) [µM] | IC50 [3] [µM] | Ratio IC50 miltef./IC50 compd., L. tropica [1] | IC50 amph. B ×100/IC50 compd., L. tropica [1] | SI L. infantum (IC50 HMEC-1/IC50 L. infantum) [2] | SI L. tropica (IC50 HMEC-1/IC50 L. tropica) [2] | Ratio IC50 miltef./IC50 compd., L. infantum [3] | IC50 amph. B ×100/IC50 compd., L. infantum [3] | IC50 [1] [µM] | IC50 [2] [µM]
1 | CCCCCCCCCCCCCCCc1nc2ccccc2n1Cc1ccccc1 [Compound 13, 1-Benzyl-2-pentadecyl-1H-benzimidazole] | 60.7 to 61.8 | > 11.9 | inactive | > 47 | > 11.9 | – | – | – | – | – | – | – | –
2 | CCCCCCCCCCCCCCCc1n(Cc2ccccc2)c2ccccc2[n+]1Cc1ccccc1.[Cl-] [Compound 15, 1,3-Dibenzyl-2-pentadecyl-1 H-benzimidazol-3-ium chloride] | 214.9 to 216.3 | 1.61 ± 0.15 | – | 0.94 ± 0.17 | 3.26 ± 0.8 | 26.9 | 5.1 | 0.29 | 0.60 | 9.6 | 2.9 | – | –
3 | CCCCCCCCCCCCCCCc1n(C[c-]2cccc2)c2ccccc2[n+]1C.[Fe+2].[I-].c1cc[cH-]c1 [Compound 17, 1-(Ferrocenylmethyl)-3-methyl-2-pentadecyl-1 H-benzimidazol-3-ium iodide] | – | – | – | – | – | 12.2 | 3.34 | – | 0.35 | – | – | 3.56 ± 0.84 | 1.26 ± 0.24
4 | CCCCCCCCCCCCCCCc1nc2ccccc2n1C [Compound 7, 1-Methyl-2-pentadecyl-1H-benzimidazole] | 64.2 to 65.6 | > 58 | inactive | – | > 58 | – | – | – | – | – | – | – | –
5 | CC(=O)c1ccc2c(c1)nc(Cc1ccccc1)n2C[C@@H]1CCCN2CCCC[C@H]12 [Compound 29] | – | 23.7 ± 8.54 | – | – | 28.5 ± 8.66 | 1.8 | 0.75 | – | – | 1.1 | 0.73 | – | –
6 | CCCC(CCC)c1nc2ccccc2[nH]1 [Compound 18, 2-(Heptan-4-yl)-1 H-benzimidazole] | 224.7 to 225.8 | 11.1 ± 2.73 | – | 65.1 ± 12.2 | > 39.6 | 3.9 | 1.07 | – | 5.87 | – | – | – | –
7 | CCCCCCCCCCCCCCCc1n(C)c2ccc([N+](=O)[O-])cc2[n+]1C.[I-] [Compound 10, 1,3-Dimethyl-5-nitro-2-pentadecyl-1 H-benzimidazol-3-ium iodide] | 154 to 156 | 1.4 ± 0.58 | – | 2.11 ± 0.45 | 0.96 ± 0.17 | 30.9 | 7.35 | 2.20 | 1.51 | 32.6 | 12.3 | – | –
8 | CCCCCCCCCCCCCCCc1n(C)c2ccc(C(F)(F)F)cc2[n+]1C.[I-] [Compound 9, 1,3-Dimethyl-2-pentadecyl-5-trifluoromethyl-1 H-benzimidazol-3-ium iodide] | 116 to 118 | 0.87 ± 0.16 | – | 1.86 ± 0.34 | 1.32 ± 0.3 | 49.7 | 11.9 | 1.41 | 2.14 | 23.7 | 8.9 | – | –
9 | CCCCCCCCCCCCCCCc1n(C)c2ccccc2[n+]1CCC.[I-] [Compound 12, 1-Methyl-2-pentadecyl-3-propyl-1H-benzimidazol-3-ium iodide] | 144.7 to 147.4 | 0.51 | – | 0.73 ± 0.37 | 0.42 ± 0.14 | 84.8 | 16.1 | 1.74 | 1.43 | 74.4 | 37.1 | – | –
10 | CCCCCCCCCCCCCCCc1nc2ccccc2[nH]1 [Compound 6, 2-Pentadecyl-1 H-benzimidazole] | 88.8 to 94.2 | 5.05 ± 0.01 | – | > 37 | 10.1 ± 4.9 | 8.6 | 1.6 | – | – | 3.1 | 0.93 | – | –
11 | CCCCCCCCCCCc1nc2ccccc2[nH]1 [Compound 1, 2-Undecyl-1 H-benzimidazole] | 108.1 to 109.3 | > 16.2 | inactive | 51 ± 7.5 | – | – | – | – | – | – | – | – | –
12 | CCCCCCCCCCCc1nc2ccccc2n1C [Compound 2, 1-Methyl-2-undecyl-1H-benzimidazole] | 40.8 to 43.4 | – | – | – | – | – | – | – | – | – | – | – | –
